Numbers after ± are expanded uncertainties.
Experiments:
[1] = mn = molality of the nth substance listed, in mol/kg; conditions: 101.3 kPa, Liquid; for speed of sound: Sing-around technique in a fixed-path interferometer; for mass density: Vibrating tube method
[2] = osmotic coefficient (dimensionless); mn = molality of the nth substance listed, in mol/kg; conditions: 323.15 K, Liquid, Vapor Pressure Osmometer

CCCCn1cc[n+](C)c1.N#CN=C=[N-] [1-butyl-3-methylimidazolium dicyanamide] + CCCO
[1]
Conditions | mass density, 293.15 K [kg/m3] | mass density, 308.15 K [kg/m3] | mass density, 323.15 K [kg/m3] | speed of sound, 293.15 K [m/s] | speed of sound, 308.15 K [m/s] | speed of sound, 323.15 K [m/s]
m1 = 0.0646 | 807.07 ± 0.12 | 795.05 ± 0.12 | 782.64 ± 0.12 | 1229.5 ± 0.8 | 1178.7 ± 0.8 | 1128.5 ± 0.8
m1 = 0.1004 | 808.7 ± 0.12 | 796.71 ± 0.12 | 784.35 ± 0.12 | 1232.4 ± 0.8 | 1181.7 ± 0.8 | 1131.7 ± 0.8
m1 = 0.154 | 811.09 ± 0.12 | 799.15 ± 0.12 | 786.83 ± 0.12 | 1236.7 ± 0.9 | 1186.2 ± 0.8 | 1136.4 ± 0.8
m1 = 0.2041 | 813.27 ± 0.12 | 801.36 ± 0.12 | 789.09 ± 0.12 | 1240.4 ± 0.9 | 1190 ± 0.8 | 1140.4 ± 0.8
m1 = 0.2521 | 815.21 ± 0.12 | 803.31 ± 0.12 | 791.08 ± 0.12 | 1243.9 ± 0.9 | 1193.4 ± 0.9 | 1143.8 ± 0.8
m1 = 0.5071 | 825.41 ± 0.12 | 813.67 ± 0.12 | 801.63 ± 0.13 | 1261.1 ± 0.9 | 1211.6 ± 0.9 | 1162.8 ± 0.9
m1 = 0.7606 | 834.72 ± 0.12 | 823.09 ± 0.12 | 811.21 ± 0.13 | 1277.2 ± 0.9 | 1228.3 ± 0.9 | 1180.1 ± 0.9
m1 = 1.012 | 843.22 ± 0.12 | 831.69 ± 0.13 | 819.94 ± 0.13 | 1292.2 ± 1 | 1243.8 ± 0.9 | 1196.2 ± 0.9
m1 = 1.263 | 851.11 ± 0.13 | 839.67 ± 0.13 | 828.03 ± 0.13 | 1306.2 ± 1 | 1258.2 ± 1 | 1211.2 ± 1
m1 = 1.512 | 858.43 ± 0.13 | 847.07 ± 0.14 | 835.54 ± 0.14 | 1319.4 ± 1 | 1271.9 ± 1 | 1225.3 ± 1
m1 = 1.765 | 865.25 ± 0.14 | 853.97 ± 0.14 | 842.54 ± 0.15 | 1331.8 ± 1.1 | 1284.7 ± 1 | 1238.6 ± 1
m1 = 2.017 | 871.65 ± 0.15 | 860.45 ± 0.15 | 849.11 ± 0.15 | 1343.6 ± 1.1 | 1297 ± 1.1 | 1251.3 ± 1.1
m1 = 2.52 | 883.38 ± 0.16 | 872.29 ± 0.17 | 861.11 ± 0.17 | 1365.8 ± 1.1 | 1319.7 ± 1.1 | 1274.6 ± 1.1
m1 = 2.826 | 889.83 ± 0.17 | 878.84 ± 0.18 | 867.75 ± 0.18 | 1377.8 ± 1.2 | 1332.3 ± 1.2 | 1287.8 ± 1.2
m1 = 3.488 | 902.23 ± 0.2 | 891.37 ± 0.2 | 880.45 ± 0.2 | 1401.8 ± 1.3 | 1357.1 ± 1.2 | 1313.3 ± 1.2

[2]
Conditions | osmotic coefficient
m1 = 0.0543 | 0.973 ± 0.012
m1 = 0.0899 | 0.898 ± 0.013
m1 = 0.1032 | 0.871 ± 0.013
m1 = 0.2057 | 0.816 ± 0.014
m1 = 0.3018 | 0.78 ± 0.014
m1 = 0.4097 | 0.748 ± 0.015
m1 = 0.5035 | 0.737 ± 0.015
m1 = 0.8276 | 0.714 ± 0.016
m1 = 1.24 | 0.691 ± 0.016
m1 = 1.64 | 0.668 ± 0.017
m1 = 2.049 | 0.646 ± 0.017
m1 = 2.45 | 0.634 ± 0.018
m1 = 2.837 | 0.616 ± 0.018
m1 = 3.324 | 0.599 ± 0.019

— the NIST ThermoML archive (doi:10.1016/j.jct.2012.02.007)
